Key:
Format in all cases: in vivo, mice
[1] = test system: maximum electroshock seizure (MES) model; test: Maximum electroshock seizure (MES) model test; conditions: for responders at 50 mg/kg / responders at 100 mg/kg: Mus musculus, po, 1 h, read-out: MES (positive number/tested number) (converted); for responders at 50 mg/kg / responders at 100 mg/kg / MES (positive number/tested number): Slc: ddY male mice, 3 per group, electrical stimulation 1 hour after administration, inhibition of hind limb extension; for anticonvulsant action in maximum electroshock seizure (MES) model test: mice, oral 50 or 100 mg/kg, 1 hour after administration
Procedure, shortened: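 Tonic hind-limb extension was elicited by corneal electroshock (60 Hz, 25 mA, 0.2 s) 1 h after oral dosing. Test compounds were given at 50 or 100 mg/kg to groups of 3 male Slc: ddY mice (20-30 g), vehicle controls receiving 0.5% tragacanth or 0.5% methylcellulose solution.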

[2] = test system: 6 Hz psychomotor seizure model; test: 6 Hz psychomotor seizure model; conditions: mice
Protocol: Test 4: Test of 6 Hz Psychomotor Seizure Model
Similar to Tests 1 and 2, Test 4 evaluates the anticonvulsant action of medicaments. However, unlike Tests 1 and 2, the animal model used herein represents clinical phenotypes of seizures resistant to existing antiepileptic drugs. […] After 30 minutes or an hour of administration, their corneas were electrically stimulated (6 Hz, 32 mA, 3 seconds) to induce symptoms of myoclonus in their forelimbs, Straub tail, and immobility. […] To the control mice, 0.5% tragacanth solution, 0.5% methylcellulose solution, or olive oil was administered.

[3] = test system: subcutaneously pentetrazol-injected model (scPTZ); test: Subcutaneously pentetrazol-injected model (scPTZ) test; conditions: pentetrazol 85 mg/kg s.c. after 1 hour; for responders at 50 mg/kg / responders at 100 mg/kg: Mus musculus, po, 1 h, read-out: scPTZ (positive number/tested number) (converted); for responders at 50 mg/kg / responders at 100 mg/kg / scPTZ (positive number/tested number): Slc: ddY male mice, 3 per group, observed 30 minutes for clonic convulsion; for anticonvulsant action in subcutaneously pentetrazol-injected model (scPTZ) test: mice, oral 50 or 100 mg/kg
Procedure, shortened: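 Pentetrazol (85 mg/kg, s.c.) was injected one hour after oral test compound at 50 or 100 mg/kg in groups of three male Slc:ddY mice weighing 20-30 g; vehicle controls got 0.5% tragacanth or 0.5% methylcellulose.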

Row | SMILES | responders at 50 mg/kg ([1]; 50 mg/kg oral) | responders at 100 mg/kg ([1]; 100 mg/kg oral) | responders at 50 mg/kg ([3]; 50 mg/kg oral) | responders at 100 mg/kg ([3]; 100 mg/kg oral) | further results
1 | NC(=O)[C@H](O)c1ccccc1-c1ccccc1 (single isomer, unassigned) [Example 207, 2-(Biphenyl-2-yl)-2R-hydroxyacetamide] | 66.7% | 100% | 66.7% | 66.7% | anticonvulsant action in maximum electroshock seizure (MES) model test [1]: anticonvulsant action was observed; ED50 ([2]; Mus musculus, 6 Hz psychomotor seizure model, oral, read-out: ED50): 86.6 mg/kg; efficacy in 6 Hz psychomotor seizure model ([2]; oral administration at a dose of 100 mg/kg): potent efficacy; 6 Hz (Positive number/tested number) ([2]; oral, dose 100 mg/kg, 30 minutes or 1 hour after administration): 7/10/100; anticonvulsant action in subcutaneously pentetrazol-injected model (scPTZ) test [3]: anticonvulsant action was observed
2 | NC(=O)C(F)(F)c1ccccc1-c1cccc(F)c1 [Example 170, 2,2-difluoro-2-(3′-fluorobiphenyl-2-yl)acetamide] | 0% | 100% | 33.3% | 66.7% | –
3 | NC(=O)C(F)(F)c1ccccc1-c1cccc(Cl)c1 [Example 171, 2-(3′-chlorobiphenyl-2-yl)-2,2-difluoroacetamide] | 100% | 100% | 33.3% | 100% | –
4 | O=C(Cc1ccccc1-c1ccccc1F)NC1CC1 [Example 172] | – | 100% | – | 0% | –
5 | O=C(Cc1ccccc1-c1ccccc1F)NCC1CC1 [Example 173] | – | 33.3% | – | 0% | –
6 | NC(=O)C(F)(F)c1ccccc1-c1ccccc1 [Example 174, 2-(biphenyl-2-yl)-2,2-difluoroacetamide] | 100% | 100% | 33.3% | 66.7% | –
7 | CC(C(N)=O)c1ccccc1-c1cccc(F)c1 (centres unmarked) [Example 175, 2-(3′-fluorobiphenyl-2-yl)propanamide] | 0% | 66.7% | 0% | 100% | –
8 | CNC(=O)C(C)c1ccccc1-c1cccc(F)c1 (centres unmarked) [Example 176] | – | 33.3% | – | 0% | –
9 | CC(C(N)=O)c1ccccc1-c1cccc(Cl)c1 (centres unmarked) [Example 177] | – | 0% | – | 33.3% | –
10 | NC(=O)C(O)c1ccccc1-c1ccc(F)cc1 (centres unmarked) [Example 179] | 33.3% | 100% | – | 33.3% | –
11 | NC(=O)C(O)c1ccccc1-c1cccc(Cl)c1 (centres unmarked) [Example 180] | 33.3% | 100% | – | 33.3% | –
12 | NC(=O)C(O)c1ccc(F)cc1-c1ccccc1 (centres unmarked) [Example 181, 2-(5-fluorobiphenyl-2-yl)-2-hydroxyacetamide] | 33.3% | 100% | 0% | 66.7% | –
13 | NC(=O)C(O)c1ccc(F)cc1-c1cccc(F)c1 (centres unmarked) [Example 182, 2-(3′,5-difluorobiphenyl-2-yl)-2-hydroxyacetamide] | 33.3% | 100% | 0% | 100% | –
14 | NC(=O)C(O)c1ccc(F)cc1-c1cc(Cl)cc(Cl)c1 (centres unmarked) [Example 184, 2-(3′,5′-dichloro-5-fluorobiphenyl-2-yl)-2-hydroxyacetamide] | 66.7% | 100% | 33.3% | 66.7% | –
15 | NC(=O)C(O)c1cc(F)ccc1-c1ccccc1 (centres unmarked) [Example 186, 2-(4-fluorobiphenyl-2-yl)-2-hydroxyacetamide] | 100% | 100% | 66.7% | 66.7% | anticonvulsant action in maximum electroshock seizure (MES) model test [1]: anticonvulsant action was observed; anticonvulsant action in subcutaneously pentetrazol-injected model (scPTZ) test [3]: anticonvulsant action was observed
16 | NC(=O)C(O)c1cc(F)ccc1-c1ccccc1F (centres unmarked) [Example 187] | – | 100% | – | 0% | –

Row | SMILES | responders at 50 mg/kg ([1]; 50 mg/kg oral) | responders at 100 mg/kg ([1]; 100 mg/kg oral) | responders at 50 mg/kg ([3]; 50 mg/kg oral) | responders at 100 mg/kg ([3]; 100 mg/kg oral) | further results
17 | NC(=O)C(O)c1cc(F)ccc1-c1cccc(F)c1 (centres unmarked) [Example 188, 2-(3′,4-difluorobiphenyl-2-yl)-2-hydroxyacetamide] | 33.3% | 100% | 0% | 66.7% | –
18 | NC(=O)C(O)c1ccccc1-c1cc(F)cc(Cl)c1 (centres unmarked) [Example 191, 2-(3′-chloro-5′-fluorobiphenyl-2-yl)-2-hydroxyacetamide] | 100% | 100% | 33.3% | 100% | –
19 | NC(=O)C(O)c1ccccc1-c1cc(F)ccc1F (centres unmarked) [Example 192] | – | 100% | – | 33.3% | –
20 | NC(=O)C(O)c1ccccc1-c1cc(F)c(F)c(F)c1 (centres unmarked) [Example 193, 2-hydroxy-2-(3′,4′,5′-trifluorobiphenyl-2-yl)acetamide] | 100% | 100% | 100% | 66.7% | –
21 | NC(=O)C(O)c1ccccc1-c1cc(Cl)ccc1F (centres unmarked) [Example 194, 2-(5′-chloro-2′-fluorobiphenyl-2-yl)-2-hydroxyacetamide] | 33.3% | 100% | 33.3% | 66.7% | –
22 | NC(=O)C(O)c1ccccc1-c1ccc(Cl)c(C(F)(F)F)c1 (centres unmarked) [Example 195] | – | 100% | – | 33.3% | –
23 | COC(C(N)=O)c1ccccc1-c1cccc(F)c1 (centres unmarked) [Example 199] | 33.3% | 100% | – | 33.3% | –
24 | COC(C(N)=O)c1ccccc1-c1ccccc1F (centres unmarked) [Example 200, 2-(2′-fluorobiphenyl-2-yl)-2-methoxyacetamide] | 0% | 100% | 33.3% | 66.7% | –
25 | CNC(=O)C(OC)c1ccccc1-c1ccccc1F (centres unmarked) [Example 201, 2-(2′-fluorobiphenyl-2-yl)-2-methoxy-N-methylacetamide] | 33.3% | 66.7% | 33.3% | 66.7% | –
26 | COC(C(=O)N(C)C)c1ccccc1-c1ccccc1F (centres unmarked) [Example 202, 2-(2′-fluorobiphenyl-2-yl)-2-methoxy-N,N-dimethylacetamide] | 33.3% | 66.7% | 0% | 100% | –
27 | COC(C(N)=O)c1ccccc1-c1ccc(F)cc1 (centres unmarked) [Example 203, 2-(4′-fluorobiphenyl-2-yl)-2-methoxyacetamide] | 33.3% | 66.7% | 66.7% | 100% | –
28 | CNC(=O)C(OC)c1ccccc1-c1ccc(F)cc1 (centres unmarked) [Example 204] | 0% | 100% | – | 0% | –
29 | COC(C(=O)N(C)C)c1ccccc1-c1ccc(F)cc1 (centres unmarked) [Example 205, 2-(4′-fluorobiphenyl-2-yl)-2-methoxy-N,N-dimethylacetamide] | 0% | 100% | 33.3% | 66.7% | –
30 | COC(C(N)=O)c1ccccc1-c1cccc(Cl)c1 (centres unmarked) [Example 206, 2-(3′-chlorobiphenyl-2-yl)-2-methoxyacetamide] | 33.3% | 66.7% | 0% | 66.7% | –
31 | NC(=O)[C@@H](O)c1ccccc1-c1cc(Cl)cc(Cl)c1 [Example 216, 2-(3′,5′-dichlorobiphenyl-2-yl)-2S-hydroxyacetamide] | – | – | – | – | MES (positive number/tested number) ([1]; 50 mg/kg oral): 1/3; MES (positive number/tested number) ([1]; 100 mg/kg oral): 2/3; scPTZ (positive number/tested number) ([3]; 50 mg/kg oral): 1/3; scPTZ (positive number/tested number) ([3]; 100 mg/kg oral): 1/3

— US20120142771A1, “BIPHENYLACETAMIDE DERIVATIVE” (Dainippon Sumitomo Pharma Co., Ltd., priority 2008, published 2012)
